Reference: patent publication US11214803B2, “Modulators of YAP1 expression” (Ionis Pharmaceuticals, Inc., priority 2019, dated 2022)
Strand notation (5' to 3'): a small letter for the sugar, then the base; units joined by * are phosphorothioate-linked, units joined directly phosphodiester-linked; [ ] holds rarer units or linkages, { } end groups; capitals alone tell only the bases. k = constrained ethyl (cEt); [5mC] = 5-methylcytosine; d = 2'-deoxy (DNA)

Experiments:
Assay type in all cases: cell-based, human
Yap1 mRNA [1] = assay: Yap1 mRNA in SNU-1066 cells, RNA analysis (Example 44); conditions: free uptake, approximately 48 hours
Method: Modified oligonucleotides described in the studies above were tested at various doses in laryngeal squamous cell carcinoma line SNU-1066. A control oligonucleotide 792169, described herein above, was also tested.
(§1) Cultured SNU-1066 cells at a density of 5000 cells per well were treated using free uptake with modified oligonucleotides diluted to concentrations described in the tables below. After approximately 48 hours, Yap1 mRNA levels were measured as previously described using the Human Yap1 primer-probe set RTS4814. Yap1 mRNA levels were normalized to actin-beta content, as measured by primer probe set RTS5002. Results are presented in the tables below as percent control of the amount of Yap1 mRNA relative to untreated control cells (% UTC).

Yap1 mRNA [2] = assay: Yap1 mRNA in CAL33 cells, RNA analysis (Example 36); conditions: free uptake, approximately 48 hours
Method: Modified oligonucleotides described in the studies above were tested at various doses in tongue squamous cell carcinoma line CAL33. A control oligonucleotide 792169, described herein above, was also tested.
as §1, with “CAL33” for “SNU-1066”

SCC-9 cells = assay: Cell proliferation assay in SCC-9 cells, CellTiter-Glo (Example 40); conditions: free uptake, approximately 144 hours
Method: Modified oligonucleotides described in the studies above were tested at various doses in tongue squamous cell carcinoma cell line SCC-9. A control oligonucleotide 792169, described herein above, was also tested.
(§2) Cultured SCC-9 cells at a density of 1000 cells/well were treated using free uptake with modified oligonucleotides diluted to concentrations described in the tables below. After approximately 144 hours, cell proliferation was measured using the luminescent cell viability CellTiter-Glo® 2.0 Assay (Promega). Results are presented in the tables below as percent control of the amount of luminescence in samples treated with modified oligonucleotides relative to untreated control cells (% UTC).

NCI H747 cells = assay: Cell proliferation assay in NCI H747 cells, CellTiter-Glo (Example 31); conditions: free uptake, 7 days
Method: Modified oligonucleotides described in the studies above were tested at various doses in colorectal adenocarcinoma cell line NCI H747. A control oligonucleotide 792169 was also tested.
as §2, with “NCI H747” for “SCC-9”, “3000” for “1000”, “7 days,” for “approximately 144 hours,”

Detroit-562 cells = assay: Cell proliferation assay in Detroit-562 cells, CellTiter-Glo (Example 38); conditions: free uptake, approximately 144 hours
Method: Modified oligonucleotides described in the studies above were tested at various doses in pharynx carcinoma cell line Detroit-562. A control oligonucleotide 792169, described herein above, was also tested.
as §2, with “Detroit-562” for “SCC-9”

Substance | human Yap1 mRNA expression (Yap1 mRNA [1]; 0.04 μM) | human Yap1 mRNA expression (Yap1 mRNA [1]; 0.2 μM) | human Yap1 mRNA expression (Yap1 mRNA [1]; 1 μM) | human Yap1 mRNA expression (Yap1 mRNA [1]; 5 μM) | human Yap1 mRNA expression (Yap1 mRNA [2]; 0.04 μM) | human Yap1 mRNA expression (Yap1 mRNA [2]; 0.2 μM) | human Yap1 mRNA expression (Yap1 mRNA [2]; 1 μM) | human Yap1 mRNA expression (Yap1 mRNA [2]; 5 μM) | Antiproliferative effect (cell proliferation, luminescence) (SCC-9 cells; 0.04 μM) | Antiproliferative effect (cell proliferation, luminescence) (SCC-9 cells; 0.2 μM) | Antiproliferative effect (cell proliferation, luminescence) (SCC-9 cells; 1 μM) | Antiproliferative effect (cell proliferation, luminescence) (SCC-9 cells; 5 μM) | Antiproliferative effect (cell proliferation, luminescence) (NCI H747 cells; 0.04 μM) | Antiproliferative effect (cell proliferation, luminescence) (NCI H747 cells; 0.2 μM) | Antiproliferative effect (cell proliferation, luminescence) (NCI H747 cells; 1 μM) | Antiproliferative effect (cell proliferation, luminescence) (NCI H747 cells; 5 μM) | Antiproliferative effect (cell proliferation, luminescence) (Detroit-562 cells; 0.04 μM) | Antiproliferative effect (cell proliferation, luminescence) (Detroit-562 cells; 0.2 μM) | Antiproliferative effect (cell proliferation, luminescence) (Detroit-562 cells; 1 μM) | Antiproliferative effect (cell proliferation, luminescence) (Detroit-562 cells; 5 μM)
715487 (kA*kT*kT*dA*d[5mC]*dT*dT*d[5mC]*dA*dT*dA*dG*d[5mC]*kT*kT*kA) [compound 715487] | 77 % UTC | 49 % UTC | 22 % UTC | 7 % UTC | 81 % UTC | 41 % UTC | 12 % UTC | 6 % UTC | 97 % UTC | 73 % UTC | 51 % UTC | 34 % UTC | 91 % UTC | 86 % UTC | 65 % UTC | 42 % UTC | 92 % UTC | 84 % UTC | 71 % UTC | 52 % UTC
CGCCGATAAGGTACAC (cEt gapmer, phosphorothioate backbone, further chemistry not given here) [ION 792169, reference compound] | 91 % UTC | 94 % UTC | 93 % UTC | 98 % UTC | 106 % UTC | 106 % UTC | 91 % UTC | 85 % UTC | 104 % UTC | 111 % UTC | 102 % UTC | 94 % UTC | 89 % UTC | 97 % UTC | 91 % UTC | 80 % UTC | 99 % UTC | 106 % UTC | 100 % UTC | 79 % UTC
